# Values of other authors as cited in patent US12377034B2, “Method for dyeing keratinous material, comprising the use of an organosilicon compound, an effect pigment and a film-forming polymer II” (Henkel AG & Co. KGaA, priority 2019, dated 2025).
# Conditions: for solubility in water: 25° C.
SMILES,solubility in water,solubility in water (in words) (at 25° C.)
CCN(Cc1cccc(S(=O)(=O)O)c1)c1ccc(C(=C2C=CC(=[N+](CC)Cc3cccc(S(=O)(=O)O)c3)C=C2)c2ccccc2S(=O)(=O)[O-])cc1 [Acid Blue 9],more than 20 % by weight,
"O=S(=O)(O)c1ccc(N=Nc2c(O)ccc3ccccc23)cc1 [Acid Orange 7, 4-[(2-hydroxy-1-naphthyl)azo]benzene sulphonate]",more than 7 g/L,
"O=[N+]([O-])c1cc([N+](=O)[O-])c2ccc(S(=O)(=O)O)cc2c1O [Acid Yellow 9, 8-hydroxy-5,7-dinitro-2-naphthalenesulfonic acid]",above 40 g/L,
"O=C(O)C1=NN(c2ccc(S(=O)(=O)O)cc2)C(=O)C1N=Nc1ccc(S(=O)(=O)O)cc1 (stereo not shown) [Acid Yellow 23, 4,5-dihydro-5-oxo-1-(4-sulfophenyl)-4-((4-sulfophenyl)azo)-1H-pyrazole-3-carboxylic acid]",,highly soluble
